In US8314092B2, “Substituted [(5H-pyrrolo[2,1-c][1,4]benzodiazepin-11-yl)piperazin-1-yl]-2,2-dimethylpropanoic acid compounds as dual activity H1 inverse agonists/5-HT2A antagonists” (Eli Lilly and Company, priority 2011, dated 2012):
Counter-ions that a name gives are not always drawn.

Assays:
[1] = target: T1, recombinant 5-HT2A receptor (human) (Homo sapiens, UniProt P28223); test: 5-HT2A competition binding assay ([3H]-Ketanserin SPA)
T1 construct: expressed in transfected cells
Protocol: [^3H]-Ketanserin binding experiments are carried out in SPA 96-well format. Membranes used in this assay are prepared from AV-12 cells stably expressing recombinant 5-HT2A receptor (human). The incubation is initiated by the addition of a mixture of WGA YSi SPA beads (1 mg/well, Perkin Elmer (MA, USA), RPNQ0011) and 2 μg membranes to assay buffer (67 mM Tris, 0.5 mM EDTA; pH 7.6) containing 3.1 nM [^3H]-Ketanserin and varying concentrations of the test compound (10 point concentration response curves). Non-specific binding is determined in the presence of 20 μM 1-(1-Naphthyl)piperazine. Samples were incubated for four hours at room temperature (22° C.) and then read in a Microbeta Trilux.
(§1) Curves are evaluated using a 4-parameter logistic nonlinear equation to obtain the concentration of competitor causing 50% inhibition of radioligand binding (IC50). Equilibrium dissociation constants (Ki) are calculated according to the equation Ki=IC50/(1+L/Kd), where L equals the concentration of radioligand used in the experiment and Kd equals the equilibrium dissociation constant of the radioligand for the receptor, determined from standard saturation analysis or homologous competition experiments. Reported values for Ki, where n values are indicated, are shown as geometric mean±the standard error of the mean (SEM), with the number of replicate determinations indicated by n. […]

[2] = target: T2, recombinant 5-HT2c receptor (human) (Homo sapiens, UniProt P28335); test: 5-HT2c competition binding assay ([125I]-DOI SPA)
T2 construct: expressed in transfected cells
Protocol: [^125I]-(±)DOI binding experiments are carried out in SPA 96-well format. Membranes used in this assay are prepared from AV-12 cells stably expressing recombinant 5-HT2c receptor (human). The incubation is initiated by the addition of a mixture of WGA PVT SPA beads (0.5 mg/well, Perkin Elmer (MA, USA), RPNQ0001) and 2.5 μg membranes to assay buffer (50 mM Tris-HCl, 10 mM MgCl2, 0.5 mM EDTA, 10 μM pargyline, 0.1% ascorbic acid, pH7.4) containing 0.2 nM [[^125I]-(±)DOI and varying concentrations of the test compound (10 point concentration response curves). Non-specific binding is determined in the presence of 20 μM 1-(1-Naphthyl)piperazine. Samples are incubated for four hours at room temperature (22° C.) and then read in a Microbeta Trilux.
as §1, with “experiments.” for “experiments. Reported values for Ki, where n values are indicated, are shown as geometric mean±the standard error of the mean (SEM), with the number of replicate determinations indicated by n.”

hERG channel = hERG channel (Homo sapiens, UniProt Q12809); test: hERG channel assay
hERG channel, sequence (Q12809 whole entry): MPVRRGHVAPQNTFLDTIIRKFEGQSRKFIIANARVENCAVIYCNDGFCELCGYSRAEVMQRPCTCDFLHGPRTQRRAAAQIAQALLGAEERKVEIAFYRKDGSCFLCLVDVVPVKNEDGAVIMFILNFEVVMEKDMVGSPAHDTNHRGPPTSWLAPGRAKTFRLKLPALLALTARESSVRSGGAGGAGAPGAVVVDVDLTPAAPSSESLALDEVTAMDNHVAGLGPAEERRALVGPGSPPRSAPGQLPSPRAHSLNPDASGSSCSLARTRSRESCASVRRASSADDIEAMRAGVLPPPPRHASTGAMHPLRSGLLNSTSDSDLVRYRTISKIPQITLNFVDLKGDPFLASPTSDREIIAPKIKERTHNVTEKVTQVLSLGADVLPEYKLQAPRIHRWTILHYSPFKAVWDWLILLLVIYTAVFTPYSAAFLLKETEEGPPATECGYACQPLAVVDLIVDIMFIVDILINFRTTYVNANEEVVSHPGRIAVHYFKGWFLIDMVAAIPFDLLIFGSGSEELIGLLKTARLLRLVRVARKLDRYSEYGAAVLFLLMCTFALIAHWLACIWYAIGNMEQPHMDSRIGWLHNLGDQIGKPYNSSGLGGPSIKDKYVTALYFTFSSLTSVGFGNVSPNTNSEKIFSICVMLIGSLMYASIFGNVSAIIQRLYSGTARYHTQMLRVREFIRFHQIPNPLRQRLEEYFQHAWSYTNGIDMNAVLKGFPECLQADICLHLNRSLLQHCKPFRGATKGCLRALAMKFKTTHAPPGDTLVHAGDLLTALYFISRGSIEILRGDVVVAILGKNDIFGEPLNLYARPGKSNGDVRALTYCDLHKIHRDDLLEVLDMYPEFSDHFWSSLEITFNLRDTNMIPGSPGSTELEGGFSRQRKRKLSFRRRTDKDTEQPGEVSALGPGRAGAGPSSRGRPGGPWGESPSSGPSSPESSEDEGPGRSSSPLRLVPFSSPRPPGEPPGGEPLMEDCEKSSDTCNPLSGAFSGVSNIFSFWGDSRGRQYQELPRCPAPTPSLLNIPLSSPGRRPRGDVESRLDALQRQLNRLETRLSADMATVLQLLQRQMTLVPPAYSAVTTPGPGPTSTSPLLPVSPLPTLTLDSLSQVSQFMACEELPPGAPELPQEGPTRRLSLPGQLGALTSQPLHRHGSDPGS
Description: (§2) Further, the compounds of the invention may be tested in binding assays and functional activity assays by well known methods for other physiologically important receptors such as, but not limited to, the hERG channel, other serotonin receptors (specifically 5-HT1A, 5-HT1B, 5-HT1D, 5-HT1E, 5-HT1F receptors, lack of agonist activity at 5-HT2B receptors, 5-HT2C, 5-HT4, 5-HTS, 5-HT6, and 5-HT7 receptors), muscarinic receptors, dopaminergic receptors (specifically D1, D2, and D3), GABAA receptors, adrenergic receptors and monoamine transporters. Certain exemplified compounds are tested at these receptors and are shown to lack significant activity.

Dopamine D1 = Dopamine D1 (Homo sapiens, UniProt P21728); test: Dopamine D1 binding
Dopamine D1, sequence (P21728 whole entry): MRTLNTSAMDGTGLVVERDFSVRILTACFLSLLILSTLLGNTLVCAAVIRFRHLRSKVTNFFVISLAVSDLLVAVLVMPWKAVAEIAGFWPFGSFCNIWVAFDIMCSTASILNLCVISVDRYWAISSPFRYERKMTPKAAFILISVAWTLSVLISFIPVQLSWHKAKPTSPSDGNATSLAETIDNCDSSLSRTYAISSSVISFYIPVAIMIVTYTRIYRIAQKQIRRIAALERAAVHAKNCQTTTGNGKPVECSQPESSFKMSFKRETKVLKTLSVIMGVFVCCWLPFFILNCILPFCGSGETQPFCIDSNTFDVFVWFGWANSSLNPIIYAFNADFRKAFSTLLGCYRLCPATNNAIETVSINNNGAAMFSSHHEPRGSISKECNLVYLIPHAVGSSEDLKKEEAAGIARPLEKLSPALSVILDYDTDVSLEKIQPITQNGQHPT
Description: as §2

Dopamine D2 = Dopamine D2 (Homo sapiens, UniProt P14416); test: Dopamine D2 binding
Description: as §2

Dopamine D3 = Dopamine D3 (Homo sapiens, UniProt P35462); test: Dopamine D3 binding
Dopamine D3, sequence (P35462 whole entry): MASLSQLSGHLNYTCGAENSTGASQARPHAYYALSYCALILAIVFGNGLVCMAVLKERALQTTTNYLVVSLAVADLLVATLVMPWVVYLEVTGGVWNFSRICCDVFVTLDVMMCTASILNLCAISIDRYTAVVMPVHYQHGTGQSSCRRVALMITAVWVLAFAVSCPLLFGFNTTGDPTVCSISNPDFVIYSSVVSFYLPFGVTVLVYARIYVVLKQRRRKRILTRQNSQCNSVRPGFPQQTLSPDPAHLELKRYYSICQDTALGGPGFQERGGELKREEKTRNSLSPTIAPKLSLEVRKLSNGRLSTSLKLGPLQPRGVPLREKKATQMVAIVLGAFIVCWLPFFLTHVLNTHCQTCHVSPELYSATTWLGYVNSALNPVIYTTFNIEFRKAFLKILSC
Description: as §2

5-HT1A = 5-HT1A (Homo sapiens, UniProt P08908); test: 5-HT1A binding
Description: as §2

5-HT1B = 5-HT1B (Homo sapiens, UniProt P28222); test: 5-HT1B binding
Description: as §2

5-HT1D = 5-HT1D (Homo sapiens, UniProt P28221); test: 5-HT1D binding
Description: as §2

5-HT5 = 5-HT5 (Homo sapiens, UniProt P47898); test: 5-HT5 binding
Description: as §2

5-HT6 = 5-HT6 (Homo sapiens, UniProt P50406); test: 5-HT6 binding
Description: as §2

5-HT7 = 5-HT7 (Homo sapiens, UniProt P34969); test: 5-HT7 binding
5-HT7, sequence (P34969 whole entry, species assumed): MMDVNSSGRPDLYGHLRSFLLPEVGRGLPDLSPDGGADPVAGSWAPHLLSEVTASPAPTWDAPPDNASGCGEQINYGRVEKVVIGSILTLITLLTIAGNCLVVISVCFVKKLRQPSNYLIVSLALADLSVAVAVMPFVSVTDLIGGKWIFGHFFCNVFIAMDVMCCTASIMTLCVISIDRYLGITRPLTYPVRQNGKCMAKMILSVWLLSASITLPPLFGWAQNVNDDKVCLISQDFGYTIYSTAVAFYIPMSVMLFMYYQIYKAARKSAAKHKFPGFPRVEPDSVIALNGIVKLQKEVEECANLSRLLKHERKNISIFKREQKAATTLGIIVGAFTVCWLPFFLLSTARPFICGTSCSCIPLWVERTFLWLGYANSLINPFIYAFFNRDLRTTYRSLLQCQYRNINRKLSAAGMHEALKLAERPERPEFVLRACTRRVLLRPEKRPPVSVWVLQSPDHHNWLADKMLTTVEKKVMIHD
Description: as §2

Adrenergic alpha1A = Adrenergic alpha1A (Homo sapiens, UniProt P35348); test: Adrenergic alpha1A binding
Description: as §2

Adrenergic alpha1B = Adrenergic alpha1B (Homo sapiens, UniProt P35368); test: Adrenergic alpha1B binding
Adrenergic alpha1B, sequence (P35368 whole entry): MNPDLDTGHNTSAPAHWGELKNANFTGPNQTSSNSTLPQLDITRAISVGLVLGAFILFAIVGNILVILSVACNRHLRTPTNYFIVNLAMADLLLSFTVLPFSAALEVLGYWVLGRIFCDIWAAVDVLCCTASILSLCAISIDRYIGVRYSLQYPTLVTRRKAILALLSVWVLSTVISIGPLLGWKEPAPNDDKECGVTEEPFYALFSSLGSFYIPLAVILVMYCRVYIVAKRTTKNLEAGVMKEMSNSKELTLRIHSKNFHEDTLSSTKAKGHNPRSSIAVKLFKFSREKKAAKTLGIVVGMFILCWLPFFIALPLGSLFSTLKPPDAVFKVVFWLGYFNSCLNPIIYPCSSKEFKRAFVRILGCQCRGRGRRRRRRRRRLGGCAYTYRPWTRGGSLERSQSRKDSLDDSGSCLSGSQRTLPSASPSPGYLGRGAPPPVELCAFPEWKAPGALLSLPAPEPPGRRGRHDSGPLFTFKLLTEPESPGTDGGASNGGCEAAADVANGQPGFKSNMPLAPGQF
Description: as §2

Adrenergic alpha2A = Adrenergic alpha2A (Homo sapiens, UniProt P08913); test: Adrenergic alpha2A binding
Description: as §2

Adrenergic alpha2B = Adrenergic alpha2B (Homo sapiens, UniProt P18089); test: Adrenergic alpha2B binding
Adrenergic alpha2B, sequence (P18089 whole entry): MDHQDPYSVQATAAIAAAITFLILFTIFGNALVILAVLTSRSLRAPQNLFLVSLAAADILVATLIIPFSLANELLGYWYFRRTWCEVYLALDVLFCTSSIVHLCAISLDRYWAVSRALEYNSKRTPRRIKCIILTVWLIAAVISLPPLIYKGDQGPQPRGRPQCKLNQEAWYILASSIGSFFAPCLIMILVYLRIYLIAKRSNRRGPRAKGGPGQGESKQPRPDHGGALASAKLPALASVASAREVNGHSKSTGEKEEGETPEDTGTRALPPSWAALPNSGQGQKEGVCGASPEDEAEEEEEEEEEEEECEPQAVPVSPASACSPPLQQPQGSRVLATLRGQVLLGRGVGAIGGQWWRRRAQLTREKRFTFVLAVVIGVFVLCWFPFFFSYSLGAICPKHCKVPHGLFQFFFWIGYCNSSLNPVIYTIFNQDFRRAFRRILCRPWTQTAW
Description: as §2

Adrenergic alpha2C = Adrenergic alpha2C (Homo sapiens, UniProt P18825); test: Adrenergic alpha2C binding
Adrenergic alpha2C, sequence (P18825 whole entry): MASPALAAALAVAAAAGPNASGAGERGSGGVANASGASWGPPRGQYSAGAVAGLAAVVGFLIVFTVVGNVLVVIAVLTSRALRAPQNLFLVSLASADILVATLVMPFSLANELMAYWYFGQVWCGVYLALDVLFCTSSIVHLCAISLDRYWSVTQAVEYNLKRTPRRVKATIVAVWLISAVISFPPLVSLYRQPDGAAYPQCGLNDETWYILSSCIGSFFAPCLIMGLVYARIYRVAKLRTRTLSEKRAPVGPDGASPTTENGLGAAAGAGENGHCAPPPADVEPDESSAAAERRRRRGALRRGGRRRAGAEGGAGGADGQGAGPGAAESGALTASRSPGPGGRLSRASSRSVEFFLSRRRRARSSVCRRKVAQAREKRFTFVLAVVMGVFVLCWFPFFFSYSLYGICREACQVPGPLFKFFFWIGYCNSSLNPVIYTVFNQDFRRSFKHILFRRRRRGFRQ
Description: as §2

Serotonin Transporter = Serotonin Transporter (Homo sapiens, UniProt P31645); test: Serotonin transporter assay; format: binding
Description: as §2

Norepinephrine Transport = Norepinephrine Transport (Homo sapiens, UniProt P23975); test: Norepinephrine transporter assay; format: binding
Description: as §2

Dopamine Transporter = Dopamine Transporter (Homo sapiens, UniProt Q01959); test: Dopamine transporter assay; format: binding
Dopamine Transporter, sequence (Q01959 whole entry): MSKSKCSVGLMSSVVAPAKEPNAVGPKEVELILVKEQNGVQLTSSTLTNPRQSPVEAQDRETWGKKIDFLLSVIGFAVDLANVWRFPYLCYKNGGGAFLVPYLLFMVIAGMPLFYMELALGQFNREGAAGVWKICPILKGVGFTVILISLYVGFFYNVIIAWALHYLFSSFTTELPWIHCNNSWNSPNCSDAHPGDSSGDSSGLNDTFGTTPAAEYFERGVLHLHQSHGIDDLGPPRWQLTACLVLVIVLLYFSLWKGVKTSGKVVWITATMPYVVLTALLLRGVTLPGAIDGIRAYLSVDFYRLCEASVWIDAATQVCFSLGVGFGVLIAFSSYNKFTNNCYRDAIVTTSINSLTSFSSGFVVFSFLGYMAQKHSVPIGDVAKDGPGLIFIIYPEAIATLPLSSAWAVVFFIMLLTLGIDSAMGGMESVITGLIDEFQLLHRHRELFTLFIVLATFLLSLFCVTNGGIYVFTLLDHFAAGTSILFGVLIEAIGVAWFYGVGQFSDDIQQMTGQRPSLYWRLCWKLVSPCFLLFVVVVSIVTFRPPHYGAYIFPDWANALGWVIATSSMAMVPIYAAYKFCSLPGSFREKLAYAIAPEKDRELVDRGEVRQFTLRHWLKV
Description: as §2

[3] = target: human recombinant H1 receptor (Homo sapiens, UniProt P35367); test: H1 competition binding assay ([3H]-Pyrilamine SPA); design: expressed in transfected cells
human recombinant H1 receptor, sequence (P35367 whole entry): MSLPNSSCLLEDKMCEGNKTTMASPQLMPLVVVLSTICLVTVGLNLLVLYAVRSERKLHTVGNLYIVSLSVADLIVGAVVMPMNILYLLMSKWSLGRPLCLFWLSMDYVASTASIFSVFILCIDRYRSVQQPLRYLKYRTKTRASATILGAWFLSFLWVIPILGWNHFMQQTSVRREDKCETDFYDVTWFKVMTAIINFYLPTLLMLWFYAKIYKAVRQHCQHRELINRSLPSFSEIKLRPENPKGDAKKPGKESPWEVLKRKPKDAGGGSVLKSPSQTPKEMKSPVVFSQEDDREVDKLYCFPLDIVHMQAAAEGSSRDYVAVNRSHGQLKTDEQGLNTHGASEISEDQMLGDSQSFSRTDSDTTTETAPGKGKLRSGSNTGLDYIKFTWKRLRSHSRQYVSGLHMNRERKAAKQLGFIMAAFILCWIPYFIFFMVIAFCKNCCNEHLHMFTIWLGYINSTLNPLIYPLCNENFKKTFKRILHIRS
Protocol: [^3H]-Pyrilamine binding experiments are carried out in SPA (scintillation proximity assay) 96-well format. Membranes used in this assay are prepared from HEK-293 cells stably expressing recombinant H1 receptor (human). The incubation is initiated by the addition of a mixture of WGA PVT SPA beads (1 mg/well, Perkin Elmer (MA, USA) RPNQ0001) and 3 μg membranes to assay buffer (67 mM Tris; pH 7.6) containing 3.5 nM [^3H]-Pyrilamine and varying concentrations of the test compound (10 point concentration response curves). Non-specific binding is determined in the presence of 10 μM Triprolidine. Samples are incubated for four hours at room temperature (22° C.) and then read in a Microbeta Trilux.
as §1

Wistar rats = test: Sleep and behavioral monitoring in rats (EEG, EMG, motion); format: in vivo; settings: rat, 3 mg/kg
Protocol: Sleep and behavioral monitoring in rats: Representative compounds of the present invention are tested in rats for their ability to increase the amount of sleep or decrease sleep interruption or both without undesired effects such as inhibition of REM sleep, waking motor impairment, and/or rebound insomnia. Test animals are continuously monitored by electro-encephalograms (EEG), electromyograms (EMG), and motion to measure cumulative nonREM sleep, cumulative total sleep, average sleep bout duration, longest sleep bout duration, rebound insomnia, REM sleep inhibition and locomotor activity intensity during wakefulness. Methods for such studies are known in the art (see for example methods described in Edgar D M, Seidel W F. Modafinil induces wakefulness without intensifying motor activity or subsequent rebound hypersomnolence in the rat. J Pharmacology & Experimental Therapeutics 1997; 283: 757-769; van Gelder R N, Edgar D M, Dement W C. Real-time automated sleep scoring: validation of a microcomputer-based system for mice. Sleep 1991, 14: 48-55; and Gross B A, Walsh C M, Turakhia A A, Booth V, Mashour G A, Poe G R. Open-source logic-based automated sleep scoring software using electrophysiological recordings in rats. J Neurosci Methods. 2009; 184(1):10-8.) Studies are conducted as follows: Animal preparation. Adult, male Wistar rats (approximately 270-300 g at time of surgery) are surgically fitted for chronic recording of EEG, EMG, and motion as follows: Rats are surgically prepared with a cranial implant consisting of four stainless steel screws for EEG recording (two frontal [3.9 mm anterior from bregma, and ±2.0 mm mediolaterally] and two occipital [6.4 mm posterior from bregma, ±5.5 mm mediolaterally]), and with two Teflon-coated stainless steel wires for EMG recording (positioned under the nuchal trapezoid muscles). All leads are soldered to a miniature connector (Microtech, Boothwyn, Pa.) prior to surgery. The implant assembly is affixed to the skull by the combination of the stainless steel EEG recording screws, cyanoacrylate applied between the implant connector and skull, and dental acrylic. Locomotor activity is monitored via a miniature transmitter (Minimitter PDT4000G, Philips Respironics, Bend, Oreg.) surgically placed into the abdomen. At least 3 weeks are allowed for recovery. Recording environment. Each rat is housed individually within a microisolator cage modified with an inserted polycarbonate filter-top riser to allow more vertical headroom. A flexible cable that minimally restricts movement is connected at one end to a commutator affixed to the cage top and at the other end to the animal's cranial implant. Each cage is located within separate, ventilated compartments of a stainless steel sleep-wake recording chamber. Food and water are available ad libitum and the ambient temperature is maintained at about 23±1° C. A 24-hr. light-dark cycle (LD 12:12) using fluorescent light is maintained throughout the study. Relative humidity averages approximately 50%. Animals are undisturbed for at least 30 hrs before and after each treatment. Study design and dosing. The vehicle (placebo, methylcellulose 15 centipoise 0.25% in water) or one of the test compound dose levels is administered orally at 1 mL/kg pseudo-randomly such that no rat receives the same treatment twice, and no rat receives more than two of the 8 treatments in any one study. Each rat is removed from its cage for about a minute to be weighed and treated. At least 6 days “washout” period precede and follow each treatment. Data collection. […]

Cc1cc2n(c1)Cc1cc(Cl)ccc1N=C2N1CCN(CC(C)(C)C(=O)O)CC1 [Example 1, 3-[4-(7-chloro-2-methyl-5H-pyrrolo[2,1-c][1,4]benzodiazepin-11-yl)piperazin-1-yl]-2,2-dimethylpropanoic acid]
Ki [1]: 0.0575 µM
Ki [2]: 3.81 µM
hERG Channel (hERG channel): >100 µM
Ki (Dopamine D1): 3.79 µM
Ki (Dopamine D2): > 4.5 µM
Ki (Dopamine D3): > 5.68 µM
Ki (5-HT1A): > 6.94 µM
Ki (5-HT1B): > 5.58 µM
Ki (5-HT1D): > 3.98 µM
Ki (5-HT5): > 8.83 µM
Ki (5-HT6): 2.69 µM
Ki (5-HT7): > 2.06 µM
Ki (Adrenergic alpha1A): > 8.91 µM
Ki (Adrenergic alpha1B): > 10.9 µM
Ki (Adrenergic alpha2A): > 9.03 µM
Ki (Adrenergic alpha2B): > 4.98 µM
Ki (Adrenergic alpha2C): > 4.02 µM
Serotonin Transporter (Serotonin Transporter): >641
Norepinephrine Transport (Norepinephrine Transport): >682
Dopamine Transporter (Dopamine Transporter): >879
Ki [3]: 0.0273 µM

CC(C)(CN1CCN(C2=Nc3ccc(Cl)cc3Cn3cc(Br)cc32)CC1)C(=O)O [Example 15, 3-[4-(2-Bromo-7-chloro-5H-pyrrolo[2,1-c][1,4]benzodiazepin-11-yl)piperazin-1-yl]-2,2-dimethylpropanoic acid dihydrochloride]
REM sleep inhibition (in words) (Wistar rats): without significant
cumulative NREM sleep time (in words) (Wistar rats): significantly increase
cumulative total sleep time (in words) (Wistar rats): significantly increase
inhibition of locomotor intensity (LMI) (in words) (Wistar rats): without significant
rebound insomnia (in words) (Wistar rats): without significant

CCc1cc2n(c1)Cc1cc(Cl)ccc1N=C2N1CCN(CC(C)(C)C(=O)O)CC1 [Example 16, 3-[4-(7-Chloro-2-ethyl-5H-pyrrolo[2,1-c][1,4]benzodiazepin-11-yl)piperazin-1-yl]-2,2-dimethylpropanoic acid dihydrochloride]
REM sleep inhibition (in words) (Wistar rats): without significant
cumulative NREM sleep time (in words) (Wistar rats): significantly increase
cumulative total sleep time (in words) (Wistar rats): significantly increase
inhibition of locomotor intensity (LMI) (in words) (Wistar rats): without significant
rebound insomnia (in words) (Wistar rats): without significant

CC(C)(CN1CCN(C2=Nc3ccc(Cl)cc3Cn3cc(Cl)cc32)CC1)C(=O)O [Example 19, 3-[4-(2,7-Dichloro-5H-pyrrolo[2,1-c][1,4]benzodiazepin-11-yl)piperazin-1-yl]-2,2-dimethylpropanoic acid dihydrochloride]
REM sleep inhibition (in words) (Wistar rats): without significant
cumulative NREM sleep time (in words) (Wistar rats): significantly increase
cumulative total sleep time (in words) (Wistar rats): significantly increase
inhibition of locomotor intensity (LMI) (in words) (Wistar rats): without significant
rebound insomnia (in words) (Wistar rats): without significant

CC(C)(CN1CCN(C2=Nc3ccc(Cl)cc3Cn3cc(C(F)(F)F)cc32)CC1)C(=O)O [Example 18, 3-{4-[7-Chloro-2-(trifluoromethyl)-5H-pyrrolo[2,1-c][1,4]benzodiazepin-11-yl]piperazin-1-yl}-2,2-dimethylpropanoic acid dihydrochloride]
REM sleep inhibition (in words) (Wistar rats): without significant
cumulative NREM sleep time (in words) (Wistar rats): significantly increase
cumulative total sleep time (in words) (Wistar rats): significantly increase
inhibition of locomotor intensity (LMI) (in words) (Wistar rats): without significant
rebound insomnia (in words) (Wistar rats): without significant
